Format in all cases: functional
The species entered for assay [1] is Mus musculus. Briefly: Inhibitory concentration on nitric oxide production in lipopolysaccharide-activated mouse peritoneal macrophages.
For assay [2], the species on record is Mus musculus. Briefly: Inhibitory effect on nitric oxide production in lipopolysaccharide activated mouse peritoneal macrophages at 3 uM.
The species entered for assay [3] is Mus musculus. Briefly: Inhibitory effect on nitric oxide production in lipopolysaccharide activated mouse peritoneal macrophages at 10 uM.

Molecules are shown by their SMILES.

As usually defined, the IC50 is the midpoint of a concentration-inhibition curve. Lower therefore signals inhibition by little substance. For orientation: inhibition means the relative decrease from the control value, in per cent. In the assay filed under Mus musculus [1], `CC(C)[C@@H]1CCC(=O)C2=C1[C@H](O)[C@](C)(O)CC2` [OXYPHYLLENODIOL A] registered an IC50 of 28 µM. Further, in the assay filed under Mus musculus [2], the inhibition at 3 µM was found to be 11.8%.
Regarding `CC(C)[C@H]1CCC(=O)C2=C1[C@H](O)[C@](C)(O)CC2` [OXYPHYLLENODIOL B], the IC50 in the assay listed under Mus musculus [1] is over 100 µM. The inhibition at 3 µM in the assay listed under Mus musculus [2] was -4.2%. Further, the inhibition at 10 µM in the assay listed under Mus musculus [3] was -0.4%.
Regarding `C[C@@]12CCC(=O)C=C1[C@@](C)(O)[C@H](O)CC2` [OXYPHYLLENONE A], the IC50 in the assay listed under Mus musculus [1] was determined as 35 µM. For the same molecule, the inhibition at 3 µM in the assay filed under Mus musculus [2] is 1.6%. Moreover, the inhibition at 10 µM in the assay listed under Mus musculus [3] was -2.9%.
On to `C[C@@]12CCC(=O)C=C1[C@](C)(O)[C@H](O)CC2` [OXYPHYLLENONE B], for which the IC50 in the assay filed under Mus musculus [1] was over 100 µM. Also, the inhibition at 3 µM in the assay listed under Mus musculus [2] is -8.1%. In addition, the inhibition at 10 µM in the assay listed under Mus musculus [3] was determined as 0.4%.
Take `CNC(=N)NCCC[C@H](N)C(=O)O` [TILARGININE]: the inhibition at 3 µM in the assay listed under Mus musculus [2] amounted to 2%.

Values taken from ChEMBL document CHEMBL1133921, “Absolute stereostructures of novel norcadinane- and trinoreudesmane-type sesquiterpenes with nitric oxide production inhibitory activity from Alpinia oxyphylla” (Bioorg Med Chem Lett, 2001).
